Source: patent US12521440B2, “Degradation of bruton's tyrosine kinase (BTK) by conjugation of BTK inhibitors with E3 ligase ligand and methods of use” (BeOne Medicines I GmbH, priority 2021, dated 2026)
pIC50: −log10 of the molar value.

Experiments:
BTK = biological target: T1, BTK (Homo sapiens, UniProt Q06187); assay: BTK degradation in TMD-8 cells (HTRF assay); type: cell-based; conditions: 6 h treatment, HTRF BTK degradation IC50 (DC50)
T1 construct: endogenous in cells; host or cells: TMD-8 cells
T1 sequence (Q06187 whole entry): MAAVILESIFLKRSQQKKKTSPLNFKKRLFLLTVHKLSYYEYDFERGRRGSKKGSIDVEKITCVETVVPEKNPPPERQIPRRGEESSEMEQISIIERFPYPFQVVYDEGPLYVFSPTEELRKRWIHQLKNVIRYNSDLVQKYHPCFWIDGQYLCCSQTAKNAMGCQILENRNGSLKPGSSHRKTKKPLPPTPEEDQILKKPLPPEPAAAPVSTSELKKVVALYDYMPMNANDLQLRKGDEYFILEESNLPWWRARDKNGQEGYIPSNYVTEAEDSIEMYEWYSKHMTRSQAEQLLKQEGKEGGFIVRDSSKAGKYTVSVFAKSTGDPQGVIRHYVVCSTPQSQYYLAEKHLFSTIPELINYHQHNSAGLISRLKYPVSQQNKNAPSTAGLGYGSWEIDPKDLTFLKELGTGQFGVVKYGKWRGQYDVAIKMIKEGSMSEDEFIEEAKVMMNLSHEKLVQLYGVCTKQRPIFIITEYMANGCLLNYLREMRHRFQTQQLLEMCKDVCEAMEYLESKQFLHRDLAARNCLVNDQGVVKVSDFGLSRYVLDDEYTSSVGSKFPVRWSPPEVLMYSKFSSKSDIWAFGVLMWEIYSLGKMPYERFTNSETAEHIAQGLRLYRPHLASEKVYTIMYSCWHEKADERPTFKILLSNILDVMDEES
Procedure, shortened: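 TMD-8 cells exposed to 8 concentrations (6-fold serial dilution from 1 mM 500× DMSO stocks; 0.2% DMSO final) for 6 h. Lysates incubated overnight at room temperature with HTRF antibodies, read at 665/620 nm. DC50 from four-parameter logistic fit of percent inhibition.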

HEK-293 cells = assay: HEK-293 cytotoxicity detection (CellTiter-Glo); type: cell-based; conditions: Homo sapiens, 72 h incubation, read-out: HEK293
Procedure, shortened: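 HEK-293 cells exposed 72 h to 8 compound concentrations (4-fold dilution series, 0.2% DMSO). Viability read as CellTiter-Glo luminescence; IC50 from four-parameter logistic fit of percent inhibition.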

SMILES	DC50 (BTK) [µM]	pIC50 (HEK-293 cells)
Cc1cc(-c2cc(Nc3ccc(N4CCN(CC5CCN(c6cccc(CN7CCC(=O)NC7=O)c6)CC5)CC4)cn3)ncn2)ccc1[C@@H](C)NC(=O)c1nc(C(C)(C)C)no1 [Example 57, (R)-3-(tert-butyl)-N-(1-(4-(6-((5-(4-((1-(3-((2,4-dioxotetrahydropyrimidin-1(2H)-yl)methyl)phenyl)piperidin-4-yl)methyl)piperazin-1-yl)pyridin-2-yl)amino)pyrimidin-4-yl)-2-methylphenyl)ethyl)-1,2,4-oxadiazole-5-carboxamide]	0.0295	< 5.00
Cc1cc(-c2cc(Nc3ccc(N4CCN(C5CN(c6ccc(C7CCC(=O)NC7=O)cc6)C5)CC4)cn3)ncn2)ccc1[C@@H](C)NC(=O)c1nc(C(C)(C)C)no1 (stereo partly drawn) [Example 41, 3-(tert-butyl)-N-((1R)-1-(4-(6-((5-(4-(1-(4-(2,6-dioxopiperidin-3-yl)phenyl)azetidin-3-yl)piperazin-1-yl)pyridin-2-yl)amino)pyrimidin-4-yl)-2-methylphenyl)ethyl)-1,2,4-oxadiazole-5-carboxamide]	0.00247	< 5.00
COc1cc(Nc2cc(-c3ccc([C@@H](C)NC(=O)c4nc(C(C)(C)C)no4)c(C)c3)ncn2)ncc1N1CCN(CC2CCN(c3ccc(N4CCC(=O)NC4=O)cc3)CC2)CC1 [Example 64, (R)-3-(tert-butyl)-N-(1-(4-(6-((5-(4-((1-(4-(2,4-dioxotetrahydropyrimidin-1(2H)-yl)phenyl)piperidin-4-yl)methyl)piperazin-1-yl)-4-methoxypyridin-2-yl)amino)pyrimidin-4-yl)-2-methylphenyl)ethyl)-1,2,4-oxadiazole-5-carboxamide]	0.026	< 5.00
Cc1cc(-c2cc(Nc3ccc(N4CC5(CN(C(=O)C6CN(c7ccc(N8CCC(=O)NC8=O)cc7)C6)C5)C4)cn3)ncn2)ccc1[C@@H](C)NC(=O)c1nc(C(C)(C)C)no1 [Example 35, (R)-3-(tert-butyl)-N-(1-(4-(6-((5-(6-(1-(4-(2,4-dioxotetrahydropyrimidin-1(2H)-yl)phenyl)azetidine-3-carbonyl)-2,6-diazaspiro [3.3]heptan-2-yl)pyridin-2-yl)amino)pyrimidin-4-yl)-2-methylphenyl)ethyl)-1,2,4-oxadiazole-5-carboxamide]	0.000981	< 5.00
Cc1cc(-c2cc(Nc3ccc(C4CN(CC5CCN(c6ccc(N7CCC(=O)NC7=O)cc6)CC5)C4)cn3)ncn2)ccc1[C@@H](C)NC(=O)c1nc(C(C)(C)C)no1 [Example 23, (R)-3-(tert-butyl)-N-(1-(4-(6-((5-(1-((1-(4-(2,4-dioxotetrahydropyrimidin-1(2H)-yl)phenyl)piperidin-4-yl)methyl)azetidin-3-yl)pyridin-2-yl)amino)pyrimidin-4-yl)-2-methylphenyl)ethyl)-1,2,4-oxadiazole-5-carboxamide]	0.00114	5.54
Cc1cc(-c2ccnc(Nc3ccc(N4CCN(CC5CCN(c6ccc(N7CCC(=O)NC7=O)cc6)CC5)CC4)c(F)n3)n2)ccc1[C@@H](C)NC(=O)c1nc(C(C)(C)C)no1 [Example 66, (R)-3-(tert-butyl)-N-(1-(4-(2-((5-(4-((1-(4-(2,4-dioxotetrahydropyrimidin-1(2H)-yl)phenyl)piperidin-4-yl)methyl)piperazin-1-yl)-6-fluoropyridin-2-yl)amino)pyrimidin-4-yl)-2-methylphenyl)ethyl)-1,2,4-oxadiazole-5-carboxamide]	0.00293	< 5.00
Cc1cc(-c2cc(Nc3ncc(N4CCN(CC5CCN(c6ccc(N7CCC(=O)NC7=O)cc6)CC5)CC4)cn3)ncn2)ccc1[C@@H](C)NC(=O)c1nc(C(C)(C)C)no1 [Example 14, (R)-3-(tert-butyl)-N-(1-(4-(6-((5-(4-((1-(4-(2,4-dioxotetrahydropyrimidin-1(2H)-yl)phenyl)piperidin-4-yl)methyl)piperazin-1-yl)pyrimidin-2-yl)amino)pyrimidin-4-yl)-2-methylphenyl)ethyl)-1,2,4-oxadiazole-5-carboxamide]	0.00321	< 5.00
Cc1cc(-c2cc(Nc3ccc(N4CCC5(CC4)CN(C(=O)C4CCN(c6ccc(N7CCC(=O)NC7=O)cc6)C4)C5)cn3)ncn2)ccc1[C@@H](C)NC(=O)c1nc(C(C)(C)C)no1 (stereo partly drawn) [Example 38, 3-(tert-butyl)-N-((1R)-1-(4-(6-((5-(2-(1-(4-(2,4-dioxotetrahydropyrimidin-1(2H)-yl)phenyl)pyrrolidine-3-carbonyl)-2,7-diazaspiro[3.5]nonan-7-yl)pyridin-2-yl)amino)pyrimidin-4-yl)-2-methylphenyl)ethyl)-1,2,4-oxadiazole-5-carboxamide]	0.000954	< 5.00
Cc1cc(-c2cc(Nc3ccc(N4CCN([C@H]5C[C@@H](c6ccc(N[C@H]7CCC(=O)NC7=O)cc6)C5)CC4)cn3)ncn2)ccc1[C@@H](C)NC(=O)c1nc(C(C)(C)C)no1 [Example 54, 3-(tert-butyl)-N—((R)-1-(4-(6-((5-(4-((1R,3s)-3-(4-(((S)-2,6-dioxopiperidin-3-yl)amino)phenyl)cyclobutyl)piperazin-1-yl)pyridin-2-yl)amino)pyrimidin-4-yl)-2-methylphenyl)ethyl)-1,2,4-oxadiazole-5-carboxamide]	0.00413	< 5.00
Cc1cc(-c2cc(Nc3ccc(N4CC5(CN(CC6CCN(c7ccc(N8CCC(=O)NC8=O)cc7)CC6)C5)C4)cn3)ncn2)ccc1[C@@H](C)NC(=O)c1nc(C(C)(C)C)no1 [Example 30, (R)-3-(tert-butyl)-N-(1-(4-(6-((5-(6-((1-(4-(2,4-dioxotetrahydropyrimidin-1(2H)-yl)phenyl)piperidin-4-yl)methyl)-2,6-diazaspiro [3.3]heptan-2-yl)pyridin-2-yl)amino)pyrimidin-4-yl)-2-methylphenyl)ethyl)-1,2,4-oxadiazole-5-carboxamide]	0.000539	6.00
Cc1cc(-c2cc(Nc3ccc(N4CCC5(CCN(CC6CCN(c7ccc(N8CCC(=O)NC8=O)cc7)CC6)C5)CC4)cn3)ncn2)ccc1[C@@H](C)NC(=O)c1nc(C(C)(C)C)no1 [Example 31, (R)-3-(tert-butyl)-N-(1-(4-(6-((5-(2-((1-(4-(2,4-dioxotetrahydropyrimidin-1(2H)-yl)phenyl)piperidin-4-yl)methyl)-2,8-diazaspiro[4.5]decan-8-yl)pyridin-2-yl)amino)pyrimidin-4-yl)-2-methylphenyl)ethyl)-1,2,4-oxadiazole-5-carboxamide]	0.00199	5.73
Cc1cc(-c2cc(Nc3ccc(N4CCN(CC5CCN(c6ccc(N7CCC(=O)NC7=O)cc6)CC5)CC4)cc3)ncn2)ccc1[C@@H](C)NC(=O)c1nc(C(C)(C)C)no1 [Example 7, (R)-3-(tert-butyl)-N-(1-(4-(6-((4-(4-((1-(4-(2,4-dioxotetrahydropyrimidin-1(2H)-yl)phenyl)piperidin-4-yl)methyl)piperazin-1-yl)phenyl)amino)pyrimidin-4-yl)-2-methylphenyl)ethyl)-1,2,4-oxadiazole-5-carboxamide]	0.0128	< 5.00
Cc1cc(-c2cc(Nc3ccc(N4CCN(CCc5cccc6c5n(C)c(=O)n6C5CCC(=O)NC5=O)CC4)cn3)ncn2)ccc1[C@@H](C)NC(=O)c1nc(C(C)(C)C)no1 (stereo partly drawn) [Example 50, 3-(tert-butyl)-N-((1R)-1-(4-(6-((5-(4-(2-(1-(2,6-dioxopiperidin-3-yl)-3-methyl-2-oxo-2,3-dihydro-1H-benzo[d]imidazol-4-yl)ethyl)piperazin-1-yl)pyridin-2-yl)amino)pyrimidin-4-yl)-2-methylphenyl)ethyl)-1,2,4-oxadiazole-5-carboxamide]	0.000632	6.04
Cc1cc(-c2cc(Nc3ccc(N4CCN(C(=O)C5CN(c6ccc(C7CCC(=O)NC7=O)cc6)C5)CC4)cn3)ncn2)ccc1[C@@H](C)NC(=O)c1nc(C(C)(C)C)no1 (stereo partly drawn) [Example 26, 3-(tert-butyl)-N-((1R)-1-(4-(6-((5-(4-(1-(4-(2,6-dioxopiperidin-3-yl)phenyl)azetidine-3-carbonyl)piperazin-1-yl)pyridin-2-yl)amino)pyrimidin-4-yl)-2-methylphenyl)ethyl)-1,2,4-oxadiazole-5-carboxamide]	0.000899	< 5.00
Cc1cc(-c2cc(Nc3ccc(N4CCN(CC5CCN(c6ccc(N7CCC(=O)NC7=O)cc6)CC5)CC4)nn3)ncn2)ccc1[C@@H](C)NC(=O)c1nc(C(C)(C)C)no1 [Example 15]	0.000638	< 5.00
Cc1cc(-c2cc(Nc3ccc(N4CCC5(CC4)CN(C(=O)C4CN(c6ccc(N7CCC(=O)NC7=O)cc6)C4)C5)cn3)ncn2)ccc1[C@@H](C)NC(=O)c1nc(C(C)(C)C)no1 [Example 36, (R)-3-(tert-butyl)-N-(1-(4-(6-((5-(2-(1-(4-(2,4-dioxotetrahydropyrimidin-1(2H)-yl)phenyl)azetidine-3-carbonyl)-2,7-diazaspiro [3.5]nonan-7-yl)pyridin-2-yl)amino)pyrimidin-4-yl)-2-methylphenyl)ethyl)-1,2,4-oxadiazole-5-carboxamide]	0.000566	< 5.00
Cc1cc(-c2cc(Nc3cccc(N4CCN(C5CC(c6ccc(NC7CCC(=O)NC7=O)cc6)C5)CC4)c3)ncn2)c(F)cc1[C@@H](C)NC(=O)c1nc(C(C)(C)C)no1 (stereo partly drawn) [Example 6, 3-(tert-butyl)-N-((1R)-1-(4-(6-((3-(4-(3-(4-((2,6-dioxopiperidin-3-yl)amino)phenyl)cyclobutyl)piperazin-1-yl)phenyl)amino)pyrimidin-4-yl)-5-fluoro-2-methylphenyl)ethyl)-1,2,4-oxadiazole-5-carboxamide]	0.0481	< 5.00
